System: CWR22Rv1 xenografts
Assay: Hormone-intact CWR22Rv1 xenograft study
Assay type: in vivo
From the text: Immunodifficient male CB-17 SCID mice (CB17/Icr-Prkdc^scid/IcrIcoCrlBltw) and NOD SCID mice (NOD.CB17-Prkdc^scid/NCrCrlBltw) mice at four to six weeks of age were purchased from BioLASCO Taiwan Co., Ilan, Taiwan. All mice were housed in conventional cages in the AAALAC Full Accreditation (2011) in Industrial Technology Research Institute and were allowed to acclimatize and recover from shipping-related stress for one week prior to the study. The health of the mice was monitored by daily observations. Animals were kept in rooms at temperature of 22–26°C with 40–70 % humidity, positive pressure, 60 % air recirculation, ventilation rate 15–20 changes per hour, and a controlled light-dark cycle (12–12 hours). The order and location of each animal cage was randomly assigned to minimize potential confounders. CWR22Rv1 cells (5 × 10^6) were suspended in 100 μL of PBS with 30 % Matrigel and subcutaneously implanted into the right flank of male CB-17 SCID mice. Tumors were measured with calipers, and tumor size was calculated as follows: tumor volume (V) = (L × S^2)/2 (L, longest diameter, mm; S, shortest diameter, mm). When mean tumor volume reached 150–200 mm^3, the mice were randomly assigned into indicated groups (n = 5-6/ group) and the day of initiating treatments was assigned as day 0. VCaP cells (5 × 10⁶) suspended in 50 % Matrigel were subcutaneously implanted into male NOD SCID mice. […] Tumor size and body weight of the animals were monitored and recorded two to three times per week. […] The drug antitumor efficacy was presented as percentages of TGI of each tested animal, calculated as follows: [1 − (final tumor volume ^treated group – initial tumor volume ^treated group) / (final tumor volume ^vehicle group – initial tumor volume ^vehicle group)] × 100. Body weight of each mouse was also compared to that on the first day of treatment (day 0) and expressed as a percentage of day 0 value. […] Statistical analysis of the differences between two drug and vehicle treated groups was determined by two-tailed Student’s t-test.

Compound: O=C1CCC(N2C(=O)c3cccc(NCC(=O)N4CCC(N5CCC(C#Cc6ccc(C7CCN(C8=Nn9c(nnc9C(F)(F)F)CC8)CC7)cc6)CC5)CC4)c3C2=O)C(=O)N1 (stereo not drawn) [ITRI-148]
- toxicity reflected by weight-loss of the animals (PO 30-60 mg/kg BID): No toxicity reflected by weight-loss of the animals was observed
- tumor growth inhibition (TGI) (oral 30 mg/kg BID): 38.08%
- tumor growth inhibition (TGI) (oral 60 mg/kg BID): 69.39%
